{"source": "patent EP0107350A1", "about": "“Sulfon amides” (Beecham Wuelfing GmbH & Co KG, priority 1982, dated 1984)", "data": [{"test_system": "Guinea pigs", "experiment": "Electrostimulation test (antiarrhythmic effect; voltage needed to induce extrasystoles/arrhythmias by electrostimulation of the right ventricle)", "format": "in vivo", "settings": "anaesthetized Guinea pigs (Urethane 1.2 g/kg i.p.), substances given intraduodenally 30 min before stimulation; 6 treated vs 6 control animals; * = statistically significant p<0.05; dose not given", "experimental": "According to the method described by […]. and PAPP, G J., (Naunyn-Schmiedebergs Arch. exp. Path. Pharmak. 245, 70 (1963), arrhythmias are induced in Guinea pigs by electostimulation of the right ventricle of the heart. The animals are anaesthetized with Urethane (1.2 g/kg i.p.) and artificially respired before a needle electrode is inserted in the right ventricle of the heart. Substances are given intraduodenally 30 min before the stimulation. The voltage needed for induction of extrasystoles in 6 control animals (n=6) is compared with that required for induction of arrhythmias in 6 treated animals (n=6). The difference is statistically evaluated by the unpaired t-test (STUDENT). This method was used to evaluate the compounds of the present invention. In Tables 1 and 2, ^* means statistically significant p<0.05.", "values": [{"smiles": "Cc1cc(C)c(S(=O)(=O)NC(C)CCCN2CCCCC2C)c(C)c1", "note": "(stereo not shown) [(1)]", "% Increase in Test Voltage": "89.4* %"}, {"smiles": "CC(CN1CCCCC1)NS(=O)(=O)c1cc(Cl)c(Cl)cc1Cl.Cl", "note": "(stereo not shown) [(2), 1-[2-(2,4,5-trichlorobenzenesulphonamido)-propyl] piperidinium chloride]", "% Increase in Test Voltage": "29.6* %"}, {"smiles": "Cc1cc(C)c(S(=O)(=O)NC(C)CCCN2CC(C)CC2C)c(C)c1", "note": "(stereo not shown) [(3)]", "% Increase in Test Voltage": "87.7* %"}, {"smiles": "CC1CCCCN1CC(O)CNS(=O)(=O)c1cc(Cl)c(Cl)cc1Cl", "note": "(stereo not shown) [(4)]", "% Increase in Test Voltage": "60.6* %"}, {"smiles": "Cc1cc(C)c(S(=O)(=O)NCC(O)CN2CCCC2)c(C)c1", "note": "(stereo not shown) [(5)]", "% Increase in Test Voltage": "29.5* %"}, {"smiles": "Cc1cc(C)c(S(=O)(=O)NCC(O)CN2CC(C)CC2C)c(C)c1", "note": "(stereo not shown) [(6)]", "% Increase in Test Voltage": "12.1* %"}, {"smiles": "Cc1cc(C)c(S(=O)(=O)NCC(O)CN2CCCCC2C)c(C)c1", "note": "(stereo not shown) [(7)]", "% Increase in Test Voltage": "13.4* %"}]}]}
